Measurements published in PubChem BioAssay (NCI).
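Five compound concentrations were applied to cells in 96-well plates for 48 hours; endpoints were derived by simple linear interpolation of the resulting dose-response curve. The concentration for 50% growth inhibition is given as GI50. TGI is the concentration that stops growth completely.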

Key:
Test in all cases: inhibition of tumour cell growth, NCI panel, 48 h
786-0 renal = tested on: 786-0 renal
A498 renal = tested on: A498 renal
A549 NSCLC = tested on: A549 NSCLC
ACHN renal = tested on: ACHN renal
BT-549 breast = tested on: BT-549 breast
CCRF-CEM leukemia = tested on: CCRF-CEM leukemia
COLO 205 colon = tested on: COLO 205 colon
DU-145 prostate = tested on: DU-145 prostate
EKVX NSCLC = tested on: EKVX NSCLC
HCC-2998 colon = tested on: HCC-2998 colon
HCT-116 colon = tested on: HCT-116 colon
HCT-15 colon = tested on: HCT-15 colon
HL-60(TB) leukemia = tested on: HL-60(TB) leukemia
HOP-62 NSCLC = tested on: HOP-62 NSCLC
HOP-92 NSCLC = tested on: HOP-92 NSCLC
HS 578T breast = tested on: HS 578T breast
HT29 colon = tested on: HT29 colon
IGROV1 ovarian = tested on: IGROV1 ovarian
K-562 leukemia = tested on: K-562 leukemia
KM12 colon = tested on: KM12 colon
LOX IMVI melanoma = tested on: LOX IMVI melanoma
M14 melanoma = tested on: M14 melanoma
MALME-3M melanoma = tested on: MALME-3M melanoma
MCF7 breast = tested on: MCF7 breast
MDA-MB-231 breast = tested on: MDA-MB-231 breast
MDA-MB-435 = tested on: MDA-MB-435
MOLT-4 leukemia = tested on: MOLT-4 leukemia
NCI-H226 lung = tested on: NCI-H226 lung
NCI-H23 lung = tested on: NCI-H23 lung
NCI-H460 lung = tested on: NCI-H460 lung
NCI-H522 lung = tested on: NCI-H522 lung
NCI/ADR-RES ovarian = tested on: NCI/ADR-RES ovarian
OVCAR-3 ovarian = tested on: OVCAR-3 ovarian
OVCAR-4 ovarian = tested on: OVCAR-4 ovarian
OVCAR-5 ovarian = tested on: OVCAR-5 ovarian
OVCAR-8 ovarian = tested on: OVCAR-8 ovarian
PC-3 prostate = tested on: PC-3 prostate
RPMI-8226 leukemia = tested on: RPMI-8226 leukemia
RXF 393 renal = tested on: RXF 393 renal
SF-268 CNS = tested on: SF-268 CNS
SF-295 CNS = tested on: SF-295 CNS
SF-539 CNS = tested on: SF-539 CNS
SK-MEL-2 melanoma = tested on: SK-MEL-2 melanoma
SK-MEL-28 melanoma = tested on: SK-MEL-28 melanoma
SK-MEL-5 melanoma = tested on: SK-MEL-5 melanoma
SK-OV-3 ovarian = tested on: SK-OV-3 ovarian
SN12C renal = tested on: SN12C renal
SNB-19 CNS = tested on: SNB-19 CNS
SNB-75 CNS = tested on: SNB-75 CNS
SR leukemia = tested on: SR leukemia
SW-620 colon = tested on: SW-620 colon
T-47D breast = tested on: T-47D breast
TK-10 renal = tested on: TK-10 renal
U251 CNS = tested on: U251 CNS
UACC-257 melanoma = tested on: UACC-257 melanoma
UACC-62 melanoma = tested on: UACC-62 melanoma
UO-31 renal = tested on: UO-31 renal

C=C1[C@@H](C)C2[C@H](Cc3ccccc3)NC(=O)[C@]23[C@H](OC(C)=O)/C=C/[C@@](C)(O)C(=O)[C@@H](C)C/C=C/[C@H]3[C@@H]1O (stereo not given in full)
TGI (786-0 renal): > 16.7 µM
GI50 (A498 renal): 0.11 µM
TGI (A498 renal): 0.826 µM
GI50 (A549 NSCLC): 0.915 µM
TGI (A549 NSCLC): > 16.7 µM
GI50 (ACHN renal): 1.32 µM
TGI (ACHN renal): > 16.7 µM
GI50 (BT-549 breast): 0.528 µM
TGI (BT-549 breast): > 16.7 µM
GI50 (CCRF-CEM leukemia): > 11.8 µM
TGI (CCRF-CEM leukemia): > 16.7 µM
GI50 (COLO 205 colon): 2.32 µM
TGI (COLO 205 colon): > 16.7 µM
GI50 (DU-145 prostate): 7.04 µM
TGI (DU-145 prostate): > 16.7 µM
GI50 (EKVX NSCLC): 0.975 µM
TGI (EKVX NSCLC): > 16.7 µM
GI50 (HCC-2998 colon): > 16.7 µM
TGI (HCC-2998 colon): > 16.7 µM
GI50 (HCT-116 colon): 0.718 µM
TGI (HCT-116 colon): > 16.7 µM
TGI (HCT-15 colon): > 16.7 µM
GI50 (HL-60(TB) leukemia): 5.31 µM
TGI (HL-60(TB) leukemia): > 16.7 µM
GI50 (HOP-62 NSCLC): 0.035 µM
TGI (HOP-62 NSCLC): > 4.4 µM
GI50 (HOP-92 NSCLC): 0.099 µM
TGI (HOP-92 NSCLC): 0.699 µM
GI50 (HS 578T breast): 0.0826 µM
TGI (HS 578T breast): > 16.7 µM
GI50 (HT29 colon): 0.0933 µM
TGI (HT29 colon): > 16.7 µM
GI50 (IGROV1 ovarian): 0.574 µM
TGI (IGROV1 ovarian): > 16.7 µM
GI50 (K-562 leukemia): > 16.7 µM
TGI (K-562 leukemia): > 16.7 µM
GI50 (KM12 colon): > 16.7 µM
TGI (KM12 colon): > 16.7 µM
GI50 (LOX IMVI melanoma): 0.272 µM
TGI (LOX IMVI melanoma): > 8.76 µM
GI50 (M14 melanoma): > 11.4 µM
TGI (M14 melanoma): > 16.7 µM
GI50 (MALME-3M melanoma): > 16.7 µM
TGI (MALME-3M melanoma): > 16.7 µM
GI50 (MCF7 breast): 0.756 µM
TGI (MCF7 breast): > 16.7 µM
GI50 (MDA-MB-231 breast): 0.366 µM
TGI (MDA-MB-231 breast): > 16.7 µM
GI50 (MDA-MB-435): > 16.7 µM
TGI (MDA-MB-435): > 16.7 µM
TGI (MOLT-4 leukemia): > 16.7 µM
GI50 (NCI-H226 lung): 16.5 µM
TGI (NCI-H226 lung): > 16.7 µM
GI50 (NCI-H23 lung): > 16.7 µM
TGI (NCI-H23 lung): > 16.7 µM
GI50 (NCI-H460 lung): 0.571 µM
TGI (NCI-H460 lung): > 16.7 µM
TGI (NCI-H522 lung): > 16.7 µM
GI50 (NCI/ADR-RES ovarian): > 16.7 µM
TGI (NCI/ADR-RES ovarian): > 16.7 µM
GI50 (OVCAR-3 ovarian): > 16.7 µM
TGI (OVCAR-3 ovarian): > 16.7 µM
GI50 (OVCAR-4 ovarian): 0.824 µM
TGI (OVCAR-4 ovarian): > 16.7 µM
GI50 (OVCAR-5 ovarian): > 9.92 µM
TGI (OVCAR-5 ovarian): > 16.7 µM
GI50 (OVCAR-8 ovarian): > 16.7 µM
TGI (OVCAR-8 ovarian): > 16.7 µM
GI50 (PC-3 prostate): > 16.7 µM
TGI (PC-3 prostate): > 16.7 µM
GI50 (RPMI-8226 leukemia): 3.84 µM
TGI (RPMI-8226 leukemia): > 16.7 µM
GI50 (RXF 393 renal): 0.105 µM
TGI (RXF 393 renal): 4.19 µM
GI50 (SF-268 CNS): 0.228 µM
TGI (SF-268 CNS): > 16.7 µM
GI50 (SF-295 CNS): 1.16 µM
TGI (SF-295 CNS): > 16.7 µM
GI50 (SF-539 CNS): 0.322 µM
TGI (SF-539 CNS): > 16.7 µM
GI50 (SK-MEL-2 melanoma): > 16.7 µM
TGI (SK-MEL-2 melanoma): > 16.7 µM
GI50 (SK-MEL-28 melanoma): > 16.7 µM
TGI (SK-MEL-28 melanoma): > 16.7 µM
GI50 (SK-MEL-5 melanoma): 0.955 µM
TGI (SK-MEL-5 melanoma): > 11.8 µM
GI50 (SK-OV-3 ovarian): 0.0997 µM
TGI (SK-OV-3 ovarian): > 15.2 µM
GI50 (SN12C renal): > 16.7 µM
TGI (SN12C renal): > 16.7 µM
GI50 (SNB-19 CNS): 0.265 µM
TGI (SNB-19 CNS): > 16.7 µM
GI50 (SNB-75 CNS): 0.0126 µM
TGI (SNB-75 CNS): 0.12 µM
GI50 (SR leukemia): > 15.7 µM
TGI (SR leukemia): > 16.7 µM
GI50 (SW-620 colon): > 16.7 µM
TGI (SW-620 colon): > 16.7 µM
GI50 (T-47D breast): > 16.7 µM
TGI (T-47D breast): > 16.7 µM
GI50 (TK-10 renal): 0.714 µM
TGI (TK-10 renal): > 16.7 µM
GI50 (U251 CNS): 0.105 µM
TGI (U251 CNS): > 16.7 µM
GI50 (UACC-257 melanoma): > 16.7 µM
TGI (UACC-257 melanoma): > 16.7 µM
GI50 (UACC-62 melanoma): > 16.7 µM
TGI (UACC-62 melanoma): > 16.7 µM
GI50 (UO-31 renal): 0.251 µM
TGI (UO-31 renal): 3.58 µM
